Data reported in US20260226073A1 (AURIGENE ONCOLOGY LIMITED, priority 2023, published 2026).

Columns and labels:
[1] = molecular target: T1, human recombinant CBL-b (human Biotin CBL-b recombinant protein a.a. 39-426) (Homo sapiens, UniProt Q13191); assay: Biochemical assay for CBL-b inhibition (ligand displacement TR-FRET); type: binding; details: 50 nM CBL-b, 0.3 μM Bodipy FL-Probe, read-out: IC50 (CBL-b inhibition, group)
T1 construct: human Biotin CBL-b recombinant protein a.a; 39-426; Biotin (biotinylated); made in house
T1 sequence (Q13191 39-426): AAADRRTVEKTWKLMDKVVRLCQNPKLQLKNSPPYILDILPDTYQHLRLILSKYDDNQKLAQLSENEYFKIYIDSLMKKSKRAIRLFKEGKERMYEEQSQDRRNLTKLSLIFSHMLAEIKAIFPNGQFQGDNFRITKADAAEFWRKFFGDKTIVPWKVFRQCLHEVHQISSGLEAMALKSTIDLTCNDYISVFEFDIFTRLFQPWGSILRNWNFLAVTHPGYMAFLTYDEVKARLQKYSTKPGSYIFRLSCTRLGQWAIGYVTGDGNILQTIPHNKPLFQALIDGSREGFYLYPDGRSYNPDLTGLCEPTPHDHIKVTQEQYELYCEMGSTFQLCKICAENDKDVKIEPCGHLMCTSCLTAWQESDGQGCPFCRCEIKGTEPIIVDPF
Method in brief: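 Biotinylated CBL-b (a.a. 39-426, 50 nM final) pre-incubated with compound 60 min at RT in HEPES/NaCl/Triton/BSA/TCEP buffer, then Bodipy FL probe (0.3 μM final) 60 min, then terbium-streptavidin 60 min. TR-FRET read at 665/615 nm; IC50 and % max inhibition from sigmoidal fits.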

[2] = test system: NFAT signaling pathway in Jurkat NFAT reporter cells; assay: Jurkat NFAT reporter assay; type: cell-based; details: Homo sapiens, 30 min with compound, then soluble anti-human CD3/CD28 antibody for 6 hours, luciferase readout, read-out: EC50 (Group)
Method in brief: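 Jurkat cells bearing an NFAT-RE-driven luciferase reporter (1×10^5 per well) preincubated with Cbl-b inhibitor for 30 min, then stimulated 6 h with soluble anti-CD3/CD28. Luminescence read with Bio-Glo; values are fold change over anti-CD3/CD28-stimulated cells without inhibitor.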

| SMILES | IC50 [1] | EC50 [2] |
| --- | --- | --- |
| Cc1cc(CNCC2CCO2)cc(N2Cc3ccc(-c4ccc(F)cc4-c4nncn4C)cc3C2=O)n1 (centres unmarked) [Compound 325, 6-(4-Fluoro-2-(4-methyl-4H-1,2,4-triazol-3-yl)phenyl)-2-(6-methyl-4-(((oxetan-2-ylmethyl)amino)methyl)pyridin-2-yl)isoindolin-1-one] | < 80 nM | 1000 to 10000 nM |
| Cc1cc([C@@H](C)NC2CCCC2)cc(N2Cc3ccc(-c4ccc(Cl)cc4-c4nncn4C)cc3C2=O)n1 (single isomer, unassigned) [Compound 126, 6-(4-Chloro-2-(4-methyl-4H-1,2,4-triazol-3-yl)phenyl)-2-(4-(1-(cyclopentyl-amino)ethyl)-6-methylpyridin-2-yl)isoindolin-1-one] | < 80 nM | < 300 nM |
| C[C@H]1CCCN(Cc2cc(N3Cc4ccc(C5(Cc6nncn6C)COC5)cc4C3=O)cc(C(C)(C)C)c2)C1 [Compound 16, (S)-2-(3-(tert-Butyl)-5-((3-methylpiperidin-1-yl)methyl)phenyl)-6-(3-((4-methyl-4H-1,2,4-triazol-3-yl)methyl)oxetan-3-yl)isoindolin-1-one] | 80 to 300 nM | 300 to 1000 nM |
| Cn1cnnc1CC1(c2ccc3c(c2)C(=O)N(c2cc(CNC4CC(F)(F)C4)cc(C(F)(F)F)n2)C3)COC1 [Compound 74, 2-(4-(((3,3-Difluorocyclobutyl)amino)methyl)-6-(trifluoromethyl)pyridin-2-yl)-6-(3-((4-methyl-4H-1,2,4-triazol-3-yl)methyl)oxetan-3-yl)isoindolin-1-one] | 80 to 300 nM | 1000 to 10000 nM |
| Cc1cc(CN[C@@H]2CCC[C@H]2O)cc(N2Cc3ccc(-c4ccc(F)cc4-c4nncn4C)cc3C2=O)n1 [Compound 314, 6-(4-Fluoro-2-(4-methyl-4H-1,2,4-triazol-3-yl)phenyl)-2-(4-((((1R,2R)-2-hydroxycyclopentyl)amino)methyl)-6-methylpyridin-2-yl)isoindolin-1-one] | < 80 nM | 300 to 1000 nM |
| C[C@H]1CCCN(Cc2cc(Cl)nc(N3Cc4ccc([C@]5(Cc6nncn6C)C[C@@H](C#N)C5)cc4C3=O)c2)C1 (single isomer, unassigned) [Compound 179] | < 80 nM | < 300 nM |
| C[C@H]1CCCN(Cc2cc(CC3CC3)cc(N3Cc4ccc(C5(Cc6nncn6C)COC5)cc4C3=O)c2)C1 [Compound 49, (S)-2-(3-(Cyclopropylmethyl)-5-((3-methylpiperidin-1-yl)methyl)phenyl)-6-(3-((4-methyl-4H-1,2,4-triazol-3-yl)methyl)oxetan-3-yl)isoindolin-1-one] | 80 to 300 nM | 300 to 1000 nM |
| Cc1cc(CN2CCC[C@H](C)C2)cc(N2Cc3ccc(C4(Cc5nncn5C)COC4)cc3C2=O)n1 [Compound 26, (S)-2-(6-Methyl-4-((3-methylpiperidin-1-yl)methyl)pyridin-2-yl)-6-(3-((4-methyl-4H-1,2,4-triazol-3-yl)methyl)oxetan-3-yl)isoindolin-1-one] | < 80 nM | < 300 nM |
| Cc1cc(CNCC2CC2(F)F)cc(N2Cc3ccc(C4(Cc5nncn5C)COC4)cc3C2=O)c1 (centres unmarked) [Compound 20, 2-(3-((((2,2-Difluorocyclopropyl)methyl)amino)methyl)-5-methylphenyl)-6-(3-((4-methyl-4H-1,2,4-triazol-3-yl)methyl)oxetan-3-yl)isoindolin-1-one] | 80 to 300 nM | 300 to 1000 nM |
| Cn1cnnc1CC1(c2ccc3c(c2)C(=O)N(c2cc(CN4CCC[C@H](C(F)(F)F)C4)cc(C(F)(F)F)n2)C3)COC1 [Compound 27, (S)-6-(3-((4-Methyl-4H-1,2,4-triazol-3-yl)methyl)oxetan-3-yl)-2-(6-(trifluoro-methyl)-4-((3-(trifluoromethyl)piperidin-1-yl)methyl)pyridin-2-yl)isoindolin-1-one] | < 80 nM | < 300 nM |
| Cn1cnnc1CC1(c2ccc3c(c2)C(=O)N(c2cc(CN4CCC[C@H](O)C4)cc(C(F)(F)F)n2)C3)COC1 [Compound 30, (S)-2-(4-((3-Hydroxypiperidin-1-yl)methyl)-6-(trifluoromethyl)pyridin-2-yl)-6-(3-((4-methyl-4H-1,2,4-triazol-3-yl)methyl)oxetan-3-yl)isoindolin-1-one] | 300 to 5000 nM | 1000 to 10000 nM |
| Cn1cnnc1CC1(c2ccc3c(c2)C(=O)N(c2cc(CN4CCCCCC4)cc(Cl)n2)C3)COC1 [Compound 157] | < 80 nM | < 300 nM |
| Cc1cc(CNCC2(O)CCCC2)cc(N2Cc3ccc(-c4ccc(F)cc4-c4nncn4C)cc3C2=O)n1 [Compound 319, 6-(4-Fluoro-2-(4-methyl-4H-1,2,4-triazol-3-yl)phenyl)-2-(4-((((1-hydroxy-cyclopentyl)methyl)amino)methyl)-6-methylpyridin-2-yl)isoindolin-1-one] | < 80 nM | < 300 nM |

The remaining lines, values ahead:

| IC50 [1] | EC50 [2] | SMILES |
| --- | --- | --- |
| < 80 nM | 300 to 1000 nM | C[C@H](Cc1nncn1C)c1ccc2c(c1)C(=O)N(c1cc(CNCC3CC3)cc(Cl)n1)C2 (single isomer, unassigned) [Compound 161] |
| < 80 nM | < 300 nM | Cn1cnnc1CC1(c2ccc3c(c2)C(=O)N(c2cc(CNCC4CC4)cc(Cl)n2)C3)CCC1 [Compound 145, 2-(6-Chloro-4-(((cyclopropylmethyl)amino)methyl)pyridin-2-yl)-6-(1-((4-methyl-4H-1,2,4-triazol-3-yl)methyl)cyclobutyl)isoindolin-1-one] |
| < 80 nM | 300 to 1000 nM | C[C@H]1CCCN(Cc2cc(Cl)nc(N3Cc4ccc([C@H](Cc5nncn5C)C(F)(F)F)cc4C3=O)c2)C1 (single isomer, unassigned) [Compound 181] |
| < 80 nM | < 300 nM | C[C@@H](Cc1nncn1C)c1ccc2c(c1)C(=O)N(c1cc(CNCC3CCC3)cc(Cl)n1)C2 (single isomer, unassigned) [Compound 171] |
| < 80 nM | < 300 nM | Cn1cnnc1CC1(c2ccc3c(c2)C(=O)N(c2cc(CNC[C@@H]4CCCO4)cc(Cl)n2)C3)COC1 (single isomer, unassigned) [Compound 196] |
| < 80 nM | < 300 nM | CCC(NC1CCCC1)c1cc(Cl)nc(N2Cc3ccc(C4(Cc5nncn5C)COC4)cc3C2=O)c1 (centres unmarked) [Compound 251, 2-(6-Chloro-4-(1-(cyclopentylamino)propyl)pyridin-2-yl)-6-(3-((4-methyl-4H-1,2,4-triazol-3-yl)methyl)oxetan-3-yl)isoindolin-1-one] |
| < 80 nM | < 300 nM | C[C@@H](NCC1CC1)c1cc(Cl)nc(N2Cc3ccc(C4(Cc5nncn5C)COC4)cc3C2=O)c1 (single isomer, unassigned) [Compound 166] |
| < 80 nM | < 300 nM | Cc1cc(CNCC2CCCC2)cc(N2Cc3ccc(-c4ccc(F)cc4-c4nncn4C)cc3C2=O)n1 [Compound 329, 2-(4-(((Cyclopentylmethyl)amino)methyl)-6-methylpyridin-2-yl)-6-(4-fluoro-2-(4-methyl-4H-1,2,4-triazol-3-yl)phenyl)isoindolin-1-one] |
| < 80 nM | < 300 nM | C[C@@H](NCC1CC(F)(F)C1)c1cc(Cl)nc(N2Cc3ccc(C4(Cc5nncn5C)COC4)cc3C2=O)c1 (single isomer, unassigned) [Compound 221] |
| < 80 nM | < 300 nM | CC(NCC1CC1)c1cc(Cl)nc(N2Cc3ccc(C4(Cc5nncn5C)CC(C#N)C4)cc3C2=O)c1 (centres unmarked) [Compound 225, 3-(2-(6-Chloro-4-(1-((cyclopropylmethyl)amino)ethyl)pyridin-2-yl)-3-oxoiso-indolin-5-yl)-3-((4-methyl-4H-1,2,4-triazol-3-yl)methyl)cyclobutane-1-carbonitrile] |
| < 80 nM | 1000 to 10000 nM | Cc1cc(CNCC2CC2)cc(N2Cc3ccc(C4(Cc5nncn5C)COC4)cc3C2=O)c1 [Compound 18, 2-(3-(((Cyclopropylmethyl)amino)methyl)-5-methylphenyl)-6-(3-((4-methyl-4H-1,2,4-triazol-3-yl)methyl)oxetan-3-yl)isoindolin-1-one] |
| < 80 nM | < 300 nM | Cn1cnnc1CC1(c2ccc3c(c2)C(=O)N(c2cc(CNCCC(F)(F)F)cc(Cl)n2)C3)COC1 [Compound 66, 2-(6-Chloro-4-(((3,3,3-trifluoropropyl)amino)methyl)pyridin-2-yl)-6-(3-((4-methyl-4H-1,2,4-triazol-3-yl)methyl)oxetan-3-yl)isoindolin-1-one] |
| < 80 nM | 1000 to 10000 nM | CCn1cnnc1-c1cc(F)ccc1-c1ccc2c(c1)C(=O)N(c1cc(CNCC3CC3)cc(C)n1)C2 [Compound 294, 2-(4-(((Cyclopropylmethyl)amino)methyl)-6-methylpyridin-2-yl)-6-(2-(4-ethyl-4H-1,2,4-triazol-3-yl)-4-fluorophenyl)isoindolin-1-one] |
| < 80 nM | 1000 to 10000 nM | Cn1cnnc1-c1ccccc1-c1ccc2c(c1)C(=O)N(c1cc(CNCCC(F)(F)F)cc(Cl)n1)C2 [Compound 116, 2-(6-Chloro-4-(((3,3,3-trifluoropropyl)amino)methyl)pyridin-2-yl)-6-(2-(4-methyl-4H-1,2,4-triazol-3-yl)phenyl)isoindolin-1-one] |
| < 80 nM | < 300 nM | Cn1cnnc1-c1cc(Cl)ccc1-c1ccc2c(c1)C(=O)N(c1cc(CNC[C@H]3CCCO3)cc(Cl)n1)C2 (single isomer, unassigned) [Compound 124, 6-(4-Chloro-2-(4-methyl-4H-1,2,4-triazol-3-yl)phenyl)-2-(6-chloro-4-((((tetra-hydrofuran-2-yl)methyl)amino)methyl)pyridin-2-yl)isoindolin-1-one] |
